In US8017785B2, “Salt forms of (2S)-(4E)-N-methyl-5-[3-(5-isopropoxypyridin)y1]-4-penten 2-amine” (AstraZeneca AB, priority 2006, dated 2011):

Target: CNS nicotinic receptors
Experiment: Determination of binding to relevant receptor sites
Settings: free base used to prepare the salts
Method: Receptor binding constants provide a measure of the ability of the compound to bind to half of the relevant receptor sites of certain brain cells of the patient. See, Cheng, et al., Biochem. Pharmacol. 22:3099 (1973). The (2S)-(4E)-N-methyl-5-[3-(5-isopropoxypyridin)yl]-4-penten-2-amine compound used to prepare the salts has extremely high affinity for the relevant receptors, with a binding affinity in the low nM range.
Binding of the compounds to relevant receptor sites was determined in accordance with the techniques described in U.S. Pat. No. 6,953,855 to Mazurov et al Inhibition constants (Ki values), reported in nM, were calculated from the IC50 values using the method of Cheng et al., Biochem, Pharmacol. 22:3099 (1973).

Compound: CN[C@@H](C)C/C=C/c1cncc(OC(C)C)c1 [(2S)-(4E)-N-methyl-5-[3-(5-isopropoxypyridin)yl]-4-penten-2-amine]
- binding affinity (receptor binding constant, Ki): low nM range
